Experimental data taken from BindingDB's records for doi:10.1021/jm0005454 (Cnrs, 2002).

Legend:
Neprilysin = target: T1, Neprilysin (Oryctolagus cuniculus, UniProt P08049); test: In Vitro Inhibition of NEP; conditions: pH 7.4; 37 °C
T1 sequence (P08049 whole entry): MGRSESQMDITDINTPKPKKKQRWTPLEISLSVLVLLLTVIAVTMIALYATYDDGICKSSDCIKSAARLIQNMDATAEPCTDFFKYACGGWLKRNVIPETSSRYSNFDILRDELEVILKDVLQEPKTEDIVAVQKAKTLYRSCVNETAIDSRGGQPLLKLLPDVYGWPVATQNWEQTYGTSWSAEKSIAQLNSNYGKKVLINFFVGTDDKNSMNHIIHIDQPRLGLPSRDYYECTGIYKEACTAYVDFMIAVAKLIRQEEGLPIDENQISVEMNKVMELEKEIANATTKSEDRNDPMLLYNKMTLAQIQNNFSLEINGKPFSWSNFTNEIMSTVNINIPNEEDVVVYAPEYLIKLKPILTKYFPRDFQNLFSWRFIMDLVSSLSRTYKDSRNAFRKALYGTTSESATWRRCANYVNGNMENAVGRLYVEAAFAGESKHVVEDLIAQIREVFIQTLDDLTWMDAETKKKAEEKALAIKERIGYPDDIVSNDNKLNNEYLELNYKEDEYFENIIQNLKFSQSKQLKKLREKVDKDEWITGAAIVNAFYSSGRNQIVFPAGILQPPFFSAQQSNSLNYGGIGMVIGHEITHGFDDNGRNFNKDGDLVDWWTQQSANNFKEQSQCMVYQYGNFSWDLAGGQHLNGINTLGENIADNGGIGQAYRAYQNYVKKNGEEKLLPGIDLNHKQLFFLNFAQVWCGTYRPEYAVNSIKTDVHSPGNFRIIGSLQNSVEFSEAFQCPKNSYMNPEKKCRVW
Method: (§1) NEP was preincubated in black 96-well microplates with or without increasing concentrations of inhibitors. DGPA was added, and the reaction was stopped after 1 hr of incubation. The fluorescence was measured at excitation wavelength = 340 nm, emission wavelength = 530 nm.

[1] = target: T2, Angiotensin-converting enzyme (Rattus norvegicus, UniProt P47820); test: In Vitro Inhibition of NEP
T2 sequence (P47820 whole entry): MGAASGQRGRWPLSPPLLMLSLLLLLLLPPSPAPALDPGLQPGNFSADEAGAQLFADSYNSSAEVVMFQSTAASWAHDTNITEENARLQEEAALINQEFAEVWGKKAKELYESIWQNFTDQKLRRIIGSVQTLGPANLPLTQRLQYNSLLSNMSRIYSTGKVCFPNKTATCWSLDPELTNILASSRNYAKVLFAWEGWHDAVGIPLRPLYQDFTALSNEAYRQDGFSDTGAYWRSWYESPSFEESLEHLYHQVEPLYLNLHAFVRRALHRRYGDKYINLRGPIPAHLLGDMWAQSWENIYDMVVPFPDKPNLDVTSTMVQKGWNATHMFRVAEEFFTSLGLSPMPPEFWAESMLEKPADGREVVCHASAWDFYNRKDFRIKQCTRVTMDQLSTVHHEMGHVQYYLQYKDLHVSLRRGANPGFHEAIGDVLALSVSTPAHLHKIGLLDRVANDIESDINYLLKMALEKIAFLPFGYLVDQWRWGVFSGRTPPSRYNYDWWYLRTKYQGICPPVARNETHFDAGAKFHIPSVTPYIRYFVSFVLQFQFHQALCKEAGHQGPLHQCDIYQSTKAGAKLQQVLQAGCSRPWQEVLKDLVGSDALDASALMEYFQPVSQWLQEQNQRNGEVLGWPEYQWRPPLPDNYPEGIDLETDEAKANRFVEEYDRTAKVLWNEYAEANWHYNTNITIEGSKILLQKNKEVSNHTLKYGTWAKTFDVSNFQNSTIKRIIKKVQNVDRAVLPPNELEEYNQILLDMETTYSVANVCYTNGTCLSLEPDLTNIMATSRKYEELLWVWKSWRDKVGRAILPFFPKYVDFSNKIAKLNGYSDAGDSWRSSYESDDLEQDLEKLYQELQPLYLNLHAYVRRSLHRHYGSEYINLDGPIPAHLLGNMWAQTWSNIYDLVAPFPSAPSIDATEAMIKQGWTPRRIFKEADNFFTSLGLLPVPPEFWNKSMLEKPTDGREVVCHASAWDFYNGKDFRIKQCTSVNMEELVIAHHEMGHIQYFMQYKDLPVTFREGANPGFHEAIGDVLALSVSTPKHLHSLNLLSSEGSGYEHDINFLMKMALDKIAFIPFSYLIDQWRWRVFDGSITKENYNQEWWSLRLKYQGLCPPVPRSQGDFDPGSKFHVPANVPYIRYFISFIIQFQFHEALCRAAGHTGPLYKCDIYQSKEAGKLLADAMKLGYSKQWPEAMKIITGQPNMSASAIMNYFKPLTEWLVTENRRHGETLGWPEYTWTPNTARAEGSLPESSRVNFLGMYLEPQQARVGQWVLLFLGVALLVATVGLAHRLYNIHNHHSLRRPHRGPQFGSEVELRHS
Method: as §1

Ki (Neprilysin): 8 nM | Ki [1]: 26 nM
SMILES: O=C(O)[C@H](Cc1c[nH]c2ccccc12)NC(=O)[C@@H](CS)[C@@H]1CCCc2ccccc21 [(2S)-3-(1H-indol-3-yl)-2-[(2S)-3-sulfanyl-2-[(1S)-1,2,3,4-tetrahydronaphthalen-1-yl]propanamido]propanoic acid]
